“And” between values parts separate entries of the source, which are not always exact repeats. Identical values can stand only once. “Also recorded” adds a separate entry of the source.
Assays:
[1] = test system: SW620 cells; test: Cytotoxicity in SW620 cells after 24 h treatment (Table S2); assay type: cell-based; details: Homo sapiens, SW-620, read-out: IC50 (µM) following 24h treatment in SW620 cells
[2] = in vivo; details: in vivo
Protocol: (§1) Wild-type (AB) zebrafish embryos, kindly provided by Dr. Ana Cvejić (Wellcome Trust Sanger Institute, Cambridge, UK), were raised to adult stage in a temperature- and light-controlled zebrafish facility at 28 °C and a standard 14:10 h light–dark photoperiod. Fish were fed with commercial dry food (SDS200 and SDS300 granular food; Special Diet Services, Essex; UK and TetraMinTM flakes; Tetra Melle, Germany) twice a day, and with Artemia nauplii daily.
(§2) Embryos produced by pairwise mating were washed to remove debris, distributed at 10 per well into 24-well plates containing 1 mL of E3 medium (5 mM NaCl, 0.17 mM KCl, 0.33 mM CaCl2 and 0.33 mM MgSO4 in distilled water) and maintained at 28 °C. […] Dead embryos were recorded and discarded every 24 h. […] Experiments were performed in triplicate using 30 embryos for each concentration. At 120 hpf, embryos were anesthetized by the addition of 0.1% (w/v) tricaine solution (Sigma-Aldrich, St. Louis, MO, USA), photographed, and killed by freezing at −20 °C for ≥24 h.

[3] = test system: zebrafish (Danio rerio) embryos; test: in vivo; details: embryos exposed for five days, up to 50 µM; cardiotoxicity, hepatotoxicity, malformations
Protocol: as §1, §2

[4] = test system: HT-29 cells; test: MTT cytotoxicity assay, HT-29; assay type: cell-based, human; details: for IC50: Homo sapiens, HT-29, MTT, 72 h after treatment, mean ± SEM; for Selectivity index (IC50 normal cell line/IC50 cancer cell lines), HT-29: MRC-5 / HT-29, in brackets
Protocol: (§3) SW620 cells were cultured in Dulbecco’s Modified Eagle’s medium (DMEM, Sigma-Aldrich Chemie GmbH, Steinheim, Germany) and supplemented in the same manner as the previously mentioned cell lines. Cells were grown in cell culture flasks T25 (Sarstedt AG & Co., Nümbrecht, Germany) at appropriate cell densities in the culture medium prior to exposure to treatments. Stock solutions of each compound, prepared in DMSO, were diluted in the culture medium to obtain the appropriate final concentrations.
(§4) The viability of the control and cells treated with the tested compounds was determined by MTT assay. Cells were seeded in 96-well plates at a density of 2000 cells/well, allowed to attach overnight, and then treated with rising concentrations of testing compounds. The ability of viable cells to reduce 3-(4,5-dimethylthiazol-2-yl)-2,5-diphenyltetrazolium bromide into blue-purple formazan crystals, was measured 72 h after the treatments. Namely, l mg/mL of MTT reagent (Sigma-Aldrich Chemie GmbH, Steinheim, Germany) was added to each well and incubated for an additional 4 h. Finally, upon removal of the medium containing MTT, 200 µL of DMSO was added to each well.

[5] = test system: MRC-5 cells; test: MTT cytotoxicity assay, MRC-5 normal fibroblasts; assay type: cell-based, human; details: Homo sapiens, MRC5, 72 h, MTT, 72 h after treatment, mean ± SEM; healthy cell line
[6] = test system: HCT 116 cells; test: SRB assay, compound plus γ-radiation, HCT 116; assay type: cell-based, human; details: IC50 concentration 24 h before 2 Gy γ-radiation, SRB 72 h after irradiation
Protocol: (§5) In the experiments involving irradiation, cells were irradiated at room temperature, in the vertical position with the cell monolayer facing ^60Co γ-rays (CIRUS-Cis Biointernational). The irradiation of samples was performed in Vinča Institute of Nuclear Sciences, Belgrade, Serbia. In all experiments, a clinically relevant radiation dose of 2 Gy with the dose rate of ~1 Gy/min was applied. For the evaluation of cell viability after treatments with radiation as well as after combined treatments, a sulforhodamine B (SRB) protein binding assay was used. This assay is based on the staining of cellular proteins. Maintaining conditions were identical to that of MTT assay. The cells were pretreated with IC50 concentrations of tested compounds for 24 h before irradiations. Following the 72 h post-irradiation incubation time under standard conditions (5% CO2, 37 °C) cells were fixed by protein precipitation with 10% trichloroacetic acid (TCA) at 4 °C for 1 h. Plates were rinsed with distillated water and stained with 0.4% SRB (Sigma-Aldrich Chemie GmbH, Steinheim, Germany) in 1% acetic acid, for 15 min at room temperature. Excess stain was removed by washing the wells in 1% acetic acid. […] The absorbance of each well was measured using a microplate reader (Wallac VICTOR2 1420 Multilabel counter, PerkinElmer, Turku, Finland) at a test wavelength of 550 nm.

[7] = test system: SW620 cells; test: Wound-healing assay; assay type: cell-based, human; details: 25 μM
Protocol: The migratory potential of SW620 cells (human colon carcinoma cell line) was evaluated by a wound-healing assay. Cells were seeded in density of 300,000 cells per well in 24-well tissue culture microplates and grown for 24 h in DMEM medium supplemented with 10% FBS, penicillin/streptomycin and L-glutamine at 37 °C in a humidified atmosphere containing 5% CO2. Upon reaching confluence, a uniform wound was scratched into a monolayer of each well with a sterile plastic 200 μL micropipette tip. After wounding, the medium was replaced and cells were further treated with 25 μM of compounds 1, 2, 3, and 5 for 24 h and 48 h. Wound closure was monitored by imaging cells at 4× magnification using the ImageXpress® Pico Automated Cell Imaging System (Molecular Devices®, San Jose, CA, USA) immediately (T0), and at 24 h (T24) and 48 h (T48) after wounding. The captured images were analyzed by ImageJ software v. 1.52p (U.S. National Institutes of Health, Bethesda, MD, USA) to measure the degree of closure of the wounded area. Independent experiments were performed three times.

[8] = test system: BxPC-3 cells; test: SRB assay, compound plus γ-radiation, BxPC-3; assay type: cell-based, human; details: IC50 concentration 24 h before 2 Gy γ-radiation, SRB 72 h after irradiation
Protocol: (§6) In the experiments involving irradiation, cells were irradiated at room temperature, in the vertical position with the cell monolayer facing ^60Co γ-rays (CIRUS-Cis Biointernational). The irradiation of samples was performed in Vinča Institute of Nuclear Sciences, Belgrade, Serbia. In all experiments, a clinically relevant radiation dose of 2 Gy with the dose rate of ~1 Gy/min was applied.
as §5, with “For” for “In the experiments involving irradiation, cells were irradiated at room temperature, in the vertical position with the cell monolayer facing ^60Co γ-rays (CIRUS-Cis Biointernational). The irradiation of samples was performed in Vinča Institute of Nuclear Sciences, Belgrade, Serbia. In all experiments, a clinically relevant radiation dose of 2 Gy with the dose rate of ~1 Gy/min was applied. For”

[9] = test system: HCT 116 cells; test: MTT cytotoxicity assay, HCT 116; assay type: cell-based, human; details: for IC50: Homo sapiens, HCT-116, MTT, 72 h after treatment, mean ± SEM; for Selectivity index (IC50 normal cell line/IC50 cancer cell lines), HCT 116: MRC-5 / HCT 116, in brackets
Protocol: as §3, §4

[10] = test system: BxPC-3 cells; test: MTT cytotoxicity assay, BxPC-3; assay type: cell-based, human; details: for IC50: Homo sapiens, BXPC-3, 72 h, MTT, 72 h after treatment, mean ± SEM; for Selectivity index (IC50 normal cell line/IC50 cancer cell lines), BxPC-3: MRC-5 / BxPC-3, in brackets
Protocol: as §3, §4

[11] = test system: HT-29 cells; test: SRB assay, compound plus γ-radiation, HT-29; assay type: cell-based, human; details: IC50 concentration 24 h before 2 Gy γ-radiation, SRB 72 h after irradiation
Protocol: as §6
For the evaluation of cell viability after treatments with radiation as well as after combined treatments, a sulforhodamine B (SRB) protein binding assay was used. This assay is based on the staining of cellular proteins. Maintaining conditions were identical to that of MTT assay. The cells were pretreated with IC50 concentrations of tested compounds for 24 h before irradiations. Following the 72 h post-irradiation incubation time under standard conditions (5% CO2, 37 °C) cells were fixed by protein precipitation with 10% trichloroacetic acid (TCA) at 4 °C for 1 h. Plates were rinsed with distillated water and stained with 0.4% SRB (Sigma-Aldrich Chemie GmbH, Steinheim, Germany) in 1% acetic acid, for 15 min at room temperature. Excess stain was removed by washing the wells in 1% acetic acid. After being rinsed, microwell plates were air dried until no staining moisture was visible. Bound dye was dissolved in 10 mM unbuffered Tris base (pH 10.5) for 5 min on a gyratory shaker. The absorbance of each well was measured using a microplate reader (Wallac VICTOR2 1420 Multilabel counter, PerkinElmer, Turku, Finland) at a test wavelength of 550 nm.

[12] = test system: COX-2; design: method as in PMID 37111306; details: cited from earlier work
[13] = test system: 5-LOX; design: method as in PMID 37111306; details: cited from earlier work

Row | SMILES | IC50 [1] [µM] | LC50 [2] [µM] | toxic response / adverse side effects in embryos [3] | IC50 [4] [µM] | Selectivity index (IC50 normal cell line/IC50 cancer cell lines), HT-29 [4] | IC50 [5] [µM] | cell proliferation, combined treatment versus radiation alone, HCT 116 [6] | Relative Wound Closure (%) 24 h ([7]; SW620, 24 h relative to T0, mean ± SEM, control 17.87 ± 3.48) | Relative Wound Closure (%) 48 h ([7]; SW620, 48 h relative to T0, mean ± SEM, control 24.51 ± 1.39) | cell proliferation, combined treatment versus radiation alone, BxPC-3 [8] | IC50 [9] [µM] | Selectivity index (IC50 normal cell line/IC50 cancer cell lines), HCT 116 [9] | IC50 [10] [µM] | Selectivity index (IC50 normal cell line/IC50 cancer cell lines), BxPC-3 [10] | cell proliferation, combined treatment versus radiation alone, HT-29 [11] | IC50 [12] [µM] | IC50 [13] [µM]
1 | O=C(NO)NCc1ccccc1Nc1c(Cl)cccc1Cl [Compound 3] | 169 ± 5.7 | > 50 | did not elicit a toxic response; also recorded: no adverse side effects | 64.6 ± 3.41 | > 1.55 | > 100 | lower in comparison to cells that were only irradiated | 3.86% and 3.86 ± 0.19% | 7.68% and 7.68 ± 2.99% | significant change in cell inactivation | 40.8 ± 1.95 | > 2.45 | 34.3 ± 1.79 | > 2.91 |  |  | 
2 | C=CCNC(=O)c1cc(C(C)(C)C)c(O)c(C(C)(C)C)c1 [Compound 6] |  |  |  | 24.8 ± 5.4 | > 4.04 | > 100 |  |  |  | statistically significant change with respect to radiation | 23 ± 3.27 | > 4.35 | 8.63 ± 0.77 | > 11.59 | statistically significant change with respect to radiation | 6.89 | 
3 | C#CCNC(=O)c1cc(C(C)(C)C)c(O)c(C(C)(C)C)c1 [Compound 7] |  |  |  | > 100 |  | > 100 |  |  |  |  | 30.2 ± 5.07 | > 3.31 | 29.2 ± 1.56 | > 3.42 | significantly inactivated HT-29 cells |  | 12.6

Reference: paper PMC11207729, “Unveiling Anticancer Potential of COX-2 and 5-LOX Inhibitors: Cytotoxicity, Radiosensitization Potential and Antimigratory Activity against Colorectal and Pancreatic Carcinoma” (Pharmaceutics, 2024)
